Source: publication PMC12655758, “Identification of KKL-35 as a Novel Carnosine Dipeptidase 2 (CNDP2) Inhibitor by In Silico Screening” (Molecules, 2025)
Where two headings read alike, the source gives them in different places. Values belong to the molecule of their own block, whether it stands above or below them.

Experiments:
Assay type in all cases: biochemical
[1] = molecular target: T1, Carnosine dipeptidase 2 (CNDP2) (Mus musculus, UniProt Q9D1A2); assay: LC-MS assay of Cys-Gly hydrolysis by purified CNDP2 (Cys-NEM readout; IC50 […] by Gly)
T1 sequence (Q9D1A2 1-475): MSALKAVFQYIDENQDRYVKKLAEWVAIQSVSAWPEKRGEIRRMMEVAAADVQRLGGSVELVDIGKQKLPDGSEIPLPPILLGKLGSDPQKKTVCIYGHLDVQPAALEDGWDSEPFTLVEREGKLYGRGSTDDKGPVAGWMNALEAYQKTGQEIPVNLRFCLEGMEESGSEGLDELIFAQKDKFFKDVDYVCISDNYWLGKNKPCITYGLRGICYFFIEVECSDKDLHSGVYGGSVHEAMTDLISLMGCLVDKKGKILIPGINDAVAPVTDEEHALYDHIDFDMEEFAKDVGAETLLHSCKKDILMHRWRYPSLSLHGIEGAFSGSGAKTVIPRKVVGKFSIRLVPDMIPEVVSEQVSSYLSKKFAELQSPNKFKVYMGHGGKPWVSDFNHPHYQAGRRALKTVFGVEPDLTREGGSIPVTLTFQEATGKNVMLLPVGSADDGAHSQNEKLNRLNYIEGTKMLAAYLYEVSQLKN

[2] = molecular target: T1, Carnosine dipeptidase 2 (CNDP2); assay: LC-MS detection of Cys-NEM and Gly products from Cys-Gly ([…]) hydrolysed by purified CNDP2
[3] = molecular target: T1, Carnosine dipeptidase 2 (CNDP2); assay: LC-MS assay of Cys-Gly hydrolysis by purified CNDP2 (Cys-NEM readout; IC50 […] by Gly); remark: listed apart in the source

- IC50 [1]: 118 µM
SMILES: O=C(Nc1nnc(-c2ccc(F)cc2)o1)c1ccc(Cl)cc1 [KKL-35]

SMILES: N[C@@H](CS)C(=O)NCC(=O)O [Cys-Gly]
- LC-MS detection of Cys-NEM and Gly products from Cys-Gly (5 mM) hydrolysed by pu [2]: Cys-Gly was hydrolyzed by CNDP2 to produce cysteine (Cys) and glycine (Gly).

SMILES: CC(C)C[C@H](NC(=O)[C@@H](O)[C@H](N)Cc1ccccc1)C(=O)O [Bestatin]
- IC50 [3]: 1 µM
